Source: PubChem BioAssay (NCI)
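The compound was tested at five concentrations on cells cultured in 96-well plates, with a 48-hour exposure period. Abbreviation: GI50, concentration required for 50% inhibition of growth. At the TGI there is no net growth.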

What was measured:
Assay in all cases: growth of human tumour cells (NCI), 48 h
A549 NSCLC = tested on: A549 NSCLC
ACHN renal = tested on: ACHN renal
MOLT-4 leukemia = tested on: MOLT-4 leukemia
SK-OV-3 ovarian = tested on: SK-OV-3 ovarian
SN12C renal = tested on: SN12C renal
SR leukemia = tested on: SR leukemia
U251 CNS = tested on: U251 CNS
UACC-257 melanoma = tested on: UACC-257 melanoma
UACC-62 melanoma = tested on: UACC-62 melanoma
UO-31 renal = tested on: UO-31 renal

Structure (SMILES)	GI50 (A549 NSCLC) [µM]	TGI (A549 NSCLC) [µM]	GI50 (ACHN renal) [µM]	TGI (ACHN renal) [µM]	GI50 (MOLT-4 leukemia) [µM]	TGI (MOLT-4 leukemia) [µM]	GI50 (SK-OV-3 ovarian) [µM]	TGI (SK-OV-3 ovarian) [µM]	GI50 (SN12C renal) [µM]	TGI (SN12C renal) [µM]	GI50 (SR leukemia) [µM]	TGI (SR leukemia) [µM]	GI50 (U251 CNS) [µM]	TGI (U251 CNS) [µM]	GI50 (UACC-257 melanoma) [µM]	TGI (UACC-257 melanoma) [µM]	GI50 (UACC-62 melanoma) [µM]	TGI (UACC-62 melanoma) [µM]	GI50 (UO-31 renal) [µM]	TGI (UO-31 renal) [µM]
Cc1ccc(C2C3Cc4ccccc4C3=NN2c2ccc(S(=O)(=O)NC(=O)Nc3ccccc3)cc2)cc1 (stereo unspecified)	12.7	27.8	14.1	27.5	8.88	34.4	16.1	31.9	14	26.9	2.51	16.1	14.3	27.3	18.6	37.8	11.2	23.2	11.6	28.4
O=c1[nH]c(=O)n(C2OC(CO)C(O)C2O)cc1F (stereo unspecified)		38.4	0.0236	21	0.0428	> 100		> 97.4		> 100	0.0274		0.0669	> 48.7	1.33	53.4	0.0515	7.56		1.91
CCSCCCC(=O)O		> 100		> 100		> 100		> 100		> 100		> 100		> 100		> 100		> 100		> 100
COc1ccc2c(c1)C(=O)c1c-2n(CCCCl)c(=O)c2cc(N)ccc12	> 100	> 100	98.4	> 100	> 54.6	> 100	> 100	> 100		97.4	> 62.8	> 100	> 51.6	> 100	> 100	> 100	> 100	> 100	> 100	> 100
Cc1cc(OCc2nn(CN3CCN(C)CC3)c(=S)n2/N=C/c2ccc(F)cc2)ccc1Cl	16.9	31.3	20.1	34.3	14.7	34.9	19.7	44.4	16.9	31	13.3	29.7			19.2	36.7	17.4	31.6	17.6	32.9
COc1cccc(-c2nn(-c3ccccc3)cc2-c2ccnc(NCCCNS(=O)(=O)c3ccc(C(F)(F)F)cc3)c2)c1	6.65	> 100	4.8	> 100			4.82	> 100	8.4	> 100	1.67	4.84	5.63	> 100	6.3	55.9	7.08	> 100	2.9	> 100
CCN(CC)CCCC(C)Nc1ccnc(/C=C/c2ccc(Cl)cc2)c1 (stereo unspecified)		4.79		8.68				10.7		10.9		> 27.2		3.12		3.59		3.69		3.17
O=C(Nc1cc2cc([N+](=O)[O-])ccc2oc1=O)c1cccs1		> 100		> 100		> 100				> 100		> 100		> 100		> 100				> 100
CC[Si](CC)(CC)OC1[C@@H](O[Si](CC)(CC)CC)[C@@H](CNC(=O)NC)O[C@H]1n1cnc2c(NC(=O)Nc3ccccc3)ncnc21 (stereo partly specified)	3.14	> 100	3.44	> 100			14.7	> 100	2.04	4.92	2.36	5.2	4.06	> 100	2.81	55.8	2.88	25.7	2.8	18.1
CC(C)(C)OC1=C(OC(C)(C)C)C(O)(c2ccc(Cl)cc2)C1=O (stereo unspecified)		> 100		> 100		> 100		> 100		> 100		> 100		> 100				> 100		> 100
O=C(CC1Sc2ccccc2NC1=O)NNc1ccc(F)cc1 (stereo unspecified)	74	> 100	7.07	> 100	5.52	> 100	> 100	> 100	22.1	> 100	14.4	> 100	> 100	> 100			6.94	> 100	7.47	> 100
CCOP(=O)(OCC)C(NC(c1ccccc1)c1ccccc1)c1ccc(C(C)C)cc1 (stereo unspecified)	4.84	23.2	2.64	7.27	1.71	4.25	13.2	34.7	4.65	16.8			3.63	13.9			10.4	22.9	7.45	28.9
CC(=O)c1ccc(Oc2c3ccccc3nc3occc23)cc1	61.9	> 100	3.57	> 100	5.71	> 100	59	> 100			0.842	> 100	4.21	> 100	4.85	> 100	2.11	7.95	60.5	> 100
COc1cc(NCCC2CCCCN2)c2ncccc2c1OC (stereo unspecified)	19.4	41.9	21.2	89.9			20.3	38.9	2.23	6.77			4.12	16	2.79	9.36	2.24	6.19	14.9	36.7
COc1ccc(/C=C/c2nc(=S)[nH][nH]2)cc1OC		> 100		> 100		> 100				> 100		> 100		> 100		> 100		> 100		> 100
Nc1cc(N)c2nc(-c3ccccc3)c(NCc3ccc(Cl)c(Cl)c3)nc2c1	10.8	27.4			2.07	> 100	18.5	35.9	5.98	24	1.63	5.97			4.53	15.7	14	30.8	4.17	> 100
O=C1C2C3C=C4c5ccccc5N(c5ccccc5)C4([C@@H]2C(=O)N1c1ccc(F)cc1)[C@H]1C(=O)N(c2ccc(F)cc2)C(=O)[C@@H]31 (stereo partly specified)		> 100		> 100		> 100				> 100		> 100		> 100		> 100				88.6

Structure (SMILES)	GI50 (A549 NSCLC) [µM]	TGI (A549 NSCLC) [µM]	GI50 (ACHN renal) [µM]	TGI (ACHN renal) [µM]	GI50 (MOLT-4 leukemia) [µM]	TGI (MOLT-4 leukemia) [µM]	GI50 (SK-OV-3 ovarian) [µM]	TGI (SK-OV-3 ovarian) [µM]	GI50 (SN12C renal) [µM]	TGI (SN12C renal) [µM]	GI50 (SR leukemia) [µM]	TGI (SR leukemia) [µM]	GI50 (U251 CNS) [µM]	TGI (U251 CNS) [µM]	GI50 (UACC-257 melanoma) [µM]	TGI (UACC-257 melanoma) [µM]	GI50 (UACC-62 melanoma) [µM]	TGI (UACC-62 melanoma) [µM]	GI50 (UO-31 renal) [µM]	TGI (UO-31 renal) [µM]
O=C(O)c1cc(Cl)cc(Cc2cc(Cl)cc(C(=O)O)c2O)c1O		> 100		> 100		> 100		> 100		> 100		> 100		> 100				> 100		> 100
Oc1cc(O)c2c(c1)OC(c1ccc(O)c(O)c1)C(O)C2c1c(O)cc(O)c2c1OC(c1ccc(O)c(O)c1)C(O)C2 (stereo unspecified)		> 100		> 100				> 100		> 100				> 100		> 100		> 100		> 100
CCOC(=O)c1ccc(NC(=O)c2cccc(NC3=C(Cl)C(=O)N(Cc4ccccc4)C3=O)c2)cc1	> 100	> 100	> 100	> 100	28.1	99.2	> 100	> 100	> 100	> 100			> 100	> 100	> 100	> 100	> 100	> 100		
CC1(C)CC[C@]2(CO)CC[C@]3(C)C(=CC[C@@H]4[C@@]5(C)CCNCC(C)(C)[C@@H]5CC[C@]43C)[C@@H]2C1	8.23	22.7	4.91	16.6	4.41	18.7	13.5	26.8	4.08	16.9			3.53	13.5	2.33	5.79	2.77	8.14	5.33	21.2
Cc1cn2c(/C=C3\C(=O)N(C)c4ccc(Cl)cc43)c(C)nc2s1	6.88	32.9	4.62	32.6	3.1	15.9			5.24	> 100	0.226	1.52	3.27	12.3	3.37	38.6	3.7	> 100	7.18	67.1
N#CC(C#N)=C1CCC2C(=C(C#N)C#N)CCC12 (stereo unspecified)		> 100				> 100		> 100		> 100		> 100		> 100		> 100		> 100		> 100
N#CC1=C(c2ccccc2)OC2(N)OC(c3ccccc3)=C(C#N)C12C#N (stereo unspecified)		> 100		> 100		> 100		> 100		> 100				> 100		> 100		> 100		> 100
CC(=O)[CH-]C(=O)c1ccccc1.CC(=O)[CH-]C(=O)c1ccccc1.CC(=O)[CH-]C(=O)c1ccccc1.[Br-].[Zr+4]	> 100	> 100	54.3	> 100	47.2	> 100	74.8	> 100	57.1	> 100			67.7	> 100	48.2	> 100	> 100	> 100		
O=C(O)CCSC(=O)Nc1ccccc1		> 100		> 100		> 100				> 100		> 100		> 100		> 100		> 100		> 100
CCOC(=O)c1cc2c(n1Cc1ccccc1OC)-c1oncc1CCC2			16.6	> 100	5.68	> 100	2.7	19.7	> 100	> 100	0.438	> 100	3.78	> 100			3.37	> 100	6.53	> 100
O=C(Nc1ccc(Cl)cc1)N1CCN(c2ccc3nncn3n2)CC1			50.6	> 100	23.8	69.6	> 100	> 100	72.4	> 100	24.5	> 100	> 100	> 100			21.7	> 100	24.9	> 100
CN(C)CCNC(=O)c1cccc2c1nc(-c1ccncc1)c1ccccc12		12.6		10.6		> 100		24.7		14.8				17		12.6		6.44		6.08
CC(=N/NC(N)=S)/C(C)=N/NC(N)=S		> 100		> 100		> 100				> 100		> 100				> 100		> 100		> 100
COc1ccc(NC(=O)c2cccc(C3CCc4c(cc(OC)c(OC)c4OC)O3)c2)cc1 (stereo unspecified)	3.57	> 100	4.28	> 100			3.54	> 100	3.7	> 100	0.419	> 100	3.4	> 100	3.72	> 100	2.05	> 100	2.36	> 100
O=C(c1ccc(Nc2nccc(NCCCCNc3ccnc4cc(Cl)ccc34)n2)cc1)N1CCCCC1	1.3	11.9	3.32	11.3	1.74	5.99	5.45	18	2.38	9.29	0.219	1.5	1.53	3.38	1.75	3.34			1.69	3.79
COc1ccc(C(Nc2ccccn2)c2cc(C(C)(C)C)cc(C(C)(C)C)c2O)cc1 (stereo unspecified)		> 100		> 100				> 100		> 100		> 100		> 100		> 100		67.1		> 100
